Measured values as given in patent publication US20230241071A1, “COMBINATION TREATMENT OF LIVER DISORDERS” (Terns Pharmaceuticals, Inc., priority 2021, published 2023).
Values joined by “and” are separate entries in the source; they are usually repeats but may differ in a detail not shown here. Equal values may be shown once. “Also recorded” adds a separate entry of the source.

Key:
[1] = Multiple ascending doses of Compound 2 in healthy subjects with elevated LDL-c; format: in vivo, human; details: 1, 3, 6, 10 mg QD 14 days
Experimental: Healthy volunteers with mildly elevated LDL-c were randomized 3:1 to Compound 2 (n=6) or placebo (n=2). Volunteers randomized to Compound 2 received multiple doses of 1, 3, 6 or 10 mg of Compound 2 once daily for 14 days in the MAD cohort of the study.

THR-β = biological target: T1, THR-β (Homo sapiens, UniProt P10828); assay: Agonistic activity toward the thyroxine receptor beta; format: biochemical
T1 sequence (P10828 1-461): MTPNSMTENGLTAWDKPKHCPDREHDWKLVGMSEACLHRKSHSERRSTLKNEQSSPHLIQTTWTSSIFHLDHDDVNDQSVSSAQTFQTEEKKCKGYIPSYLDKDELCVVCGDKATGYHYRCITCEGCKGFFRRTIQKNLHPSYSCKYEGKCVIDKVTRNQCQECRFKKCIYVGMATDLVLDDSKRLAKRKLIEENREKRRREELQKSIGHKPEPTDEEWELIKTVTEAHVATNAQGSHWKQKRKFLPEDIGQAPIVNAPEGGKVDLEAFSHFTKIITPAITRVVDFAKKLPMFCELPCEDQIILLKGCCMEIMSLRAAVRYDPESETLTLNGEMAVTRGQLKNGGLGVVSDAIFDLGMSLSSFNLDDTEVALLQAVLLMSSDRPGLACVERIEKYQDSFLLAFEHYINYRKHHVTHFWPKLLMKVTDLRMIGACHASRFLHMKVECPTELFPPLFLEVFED

DIO-GAN NASH mouse model = assay: Biopsy-confirmed DIO-GAN NASH mice, 12 weeks mono- and combination treatment; format: in vivo; details: for hepatomegaly (liver weight) / spleen weight / total cholesterol (plasma): vs DIO-GAN vehicle control; for plasma triglycerides: Compound 2-high 10 mg/kg, combinations; for α-SMA (IHC), marker of hepatic stellate cell activation: Compound 3, Compound 2-low and -med, Combo-low
From the text: C57BL/6JRj male mice (n=138) were fed the Gubra Amylin NASH (GAN) diet (40% fat, 22% fructose, 2% cholesterol [D09100310, Research Diets]) or lean chow diet for 35 weeks before treatment start. Prior to treatment all animals underwent liver biopsy for histological confirmation (steatosis score ≥2 and fibrosis stage ≥1) and stratification using the nonalcoholic fatty liver disease (NAFLD) activity scoring (NAS) and fibrosis staging system. The diet-induced obese mice on GAN diet (DIO-GAN) were randomized to 8 treatment groups […] based on percent-area of picrosirius red (PSR) staining. DIO-GAN mice (n=16 per group) received treatment (PO, QD) for 12 weeks with vehicle (0.5% HPMC+0.2% Tween-80 in Tris buffer [50 mM, pH 8]), Compound 3 (10 mg/kg), Compound 2 (0.3 mg/kg [low], 2 mg/kg [med], or 10 mg/kg [high]), or combination treatments of Compound 3 with Compound 2 (Combo-low, Combo-med or Combo-high). Vehicle-dosed lean chow-fed controls served as healthy controls (n=10). Mice were maintained on their respective diets (GAN or lean chow) for the duration of the study. Within-subject comparisons (pre- vs. post-treatment) were performed for liver biopsy histopathological scores. Terminal quantitative endpoints included plasma/liver biochemistry, liver histomorphometry, and liver transcriptomic analysis by RNAseq.
Formalin-fixed paraffin-embedded (FFPE) liver biopsies were prepared by placing liver samples into 10% neutral buffered formalin for ˜24 hours and then transferred to 70% ethanol prior to storage at 4 C. FFPE were placed in the Histokinette to infiltrate prior to embedding in blocks. Biopsy tissues were then cut at 3 μm using a microtome and sections were mounted on slides. Liver sections were stained with Hematoxylin and Eosin (H&E) to assess steatosis, inflammation, and ballooning, and PSR to assess fibrosis. Additionally, slides were processed to detect type I collagen (Col1a1), galectin-3 (Gal-3), and smooth muscle actin (α-SMA) protein expression by immunohistochemistry (IHC). For H&E staining, slides were incubated in Mayer's Hematoxylin (Dako), washed with tap water, stained in Eosin Y solution (Sigma-Aldrich), dehydrated, and coverslipped. For PSR, slides were incubated in Weigert's iron hematoxylin (Sigma-Aldrich), washed in tap water, stained in Picro-sirius red (Sigma-Aldrich), and washed twice in acidified water. Excess water was removed by shaking the slides and the slides were then dehydrated with ethanol, cleared in xylene, and cover-slipped. The NAS and fibrosis stage were scored as described previously (Kleiner et al. 2005). NAS represents the unweighted sum of steatosis, inflammation, and ballooning scores and ranges for 0-8 (Table 26); fibrosis stage ranges from 0 (no fibrosis) to 4 (cirrhosis). For detection of Col1a1, Gal-3 and α-SMA, IHC was performed by standard procedures. Briefly, after antigen retrieval and blocking of endogenous peroxidase activity, slides were incubated with primary antibody (Col1a1: Southern Biotech, Cat. 1310-01; Gal-3: Biolegend, Cat. 125402; α-SMA: Abcam Cat. Ab124964). Primary antibody was detected using a polymeric HRP-linker antibody conjugate. Primary antibody was visualized with DAB as chromogen. Finally, sections were counterstained in hematoxylin and cover-slipped.
Terminal blood was harvested by cardiac puncture from mice anesthetized with isoflurane (2-3%), mixed with anticoagulant, and placed at 4 C prior to centrifugation at 3000×g for 10 minutes. Plasma supernatants were transferred to new tubes and immediately frozen on dry ice and stored at −80 C. Alanine transaminase (ALT), Aspartate transaminase (AST), Alkaline phosphatase (ALP), Triglycerides (TGs), Total Cholesterol (TC), High-density lipoprotein (HDL-c), and Low-density lipoprotein (LDL-c) were measured using commercial kits (Roche Diagnostics) on the Cobas c 501 autoanalyzer according to manufacturer's instructions. […]

[2] = 12 wk PO QD, Compound 3 10 mg/kg
[3] = 12 wk PO QD, high: Compound 2 10 mg/kg, alone or (Combo) + Compound 3 10 mg/kg
[4] = 12 wk PO QD, high: Compound 2 10 mg/kg, alone or (Combo) + Compound 3 10 mg/kg, 10 mg/kg
[5] = 12 wk PO QD, low: Compound 2 0.3 mg/kg, alone or (Combo) + Compound 3 10 mg/kg
[6] = 12 wk PO QD, med: Compound 2 2 mg/kg, alone or (Combo) + Compound 3 10 mg/kg
[7] = 12 wk PO QD, single agent 10 mg/kg

N#Cc1nn(-c2cc(Cl)c(Oc3n[nH]c(=O)c4ccccc34)c(Cl)c2)c(=O)[nH]c1=O [Compound 2, 2-(3,5-dichloro-4-((4-oxo-3,4-dihydrophthalazin-1-yl)oxy)phenyl)-3,5-dioxo-2,3,4,5-tetrahydro-1,2,4-triazine-6-carbonitrile]
PK dose proportionality and variability [1]: dose-proportional PK with low variability
SHBG [1]: increased SHBG
circulating atherogenic lipid levels (LDL-c, Apo B, total cholesterol, triglycerides) [1]: significant decreases
free T4 [1]: Dose-dependent declines
safety and tolerability [1]: generally safe and well-tolerated
subjects with ALT increase to ≥2×ULN [1]: No subject
EC50 (THR-β): 1750 nM
hepatomegaly (liver weight) (DIO-GAN NASH mouse model; 12 wk PO QD): significantly reduced hepatomegaly
spleen weight (DIO-GAN NASH mouse model; 12 wk PO QD): without changes in spleen weight
total cholesterol (plasma) (DIO-GAN NASH mouse model; 12 wk PO QD): significantly reduced total cholesterol
ALT levels relative to DIO-GAN vehicle control (DIO-GAN NASH mouse model; 12 wk PO QD, Compound 2 low, med, and high): significantly reduced; also recorded: significantly lowered ALT levels
plasma triglycerides (DIO-GAN NASH mouse model; [2]): significantly reduced plasma triglycerides
α-SMA (IHC), marker of hepatic stellate cell activation (DIO-GAN NASH mouse model; 12 wk PO QD): Numeric reductions
Histological steatosis score: mice improving 1-pt (DIO-GAN NASH mouse model; [3]): 75%
Histological steatosis score: mice with no change (DIO-GAN NASH mouse model; [3]): 18.75%
Liver fibrosis stage: mice improving (DIO-GAN NASH mouse model; [3]): 6.25%
Liver fibrosis stage: mice with no change (DIO-GAN NASH mouse model; [3]): 68.75%
Liver fibrosis stage: mice worsening (DIO-GAN NASH mouse model; [3]): 25%
Lobular inflammation: mice improving (DIO-GAN NASH mouse model; [3]): 12.5%
Lobular inflammation: mice with no change (DIO-GAN NASH mouse model; [3]): 56.25%
Lobular inflammation: mice worsening (DIO-GAN NASH mouse model; [3]): 31.25%
NAS: mice improving 1-pt (DIO-GAN NASH mouse model; [3]): 37.5%
NAS: mice with no change (DIO-GAN NASH mouse model; [3]): 31.25%
NAS: mice worsening ≥1-pt (DIO-GAN NASH mouse model; [3]): 6.25%
Histological steatosis score: mice improving >2-pt (DIO-GAN NASH mouse model; [4]): 6.25%
Histological steatosis score: mice improving, Total (at least 1-pt) (DIO-GAN NASH mouse model; [4]): 81% and 81.25%
NAS: mice improving ≥2-pt (DIO-GAN NASH mouse model; [4]): 25%
NAS: mice improving, Total (≥1-pt) (DIO-GAN NASH mouse model; [4]): 62% and 62.5%
Histological steatosis score: mice improving 1-pt (DIO-GAN NASH mouse model; [5]): 25%
Histological steatosis score: mice improving >2-pt (DIO-GAN NASH mouse model; [5]): 6.25%
Histological steatosis score: mice improving, Total (at least 1-pt) (DIO-GAN NASH mouse model; [5]): 31% and 31.25%
Histological steatosis score: mice with no change (DIO-GAN NASH mouse model; [5]): 68.75%
Liver fibrosis stage: mice improving (DIO-GAN NASH mouse model; [5]): 6.25%
Liver fibrosis stage: mice with no change (DIO-GAN NASH mouse model; [5]): 62.5%
Liver fibrosis stage: mice worsening (DIO-GAN NASH mouse model; [5]): 31.25%
Lobular inflammation: mice improving (DIO-GAN NASH mouse model; [5]): 6.25%
Lobular inflammation: mice with no change (DIO-GAN NASH mouse model; [5]): 68.75%
Lobular inflammation: mice worsening (DIO-GAN NASH mouse model; [5]): 25%
NAS: mice improving 1-pt (DIO-GAN NASH mouse model; [5]): 31.25%
NAS: mice improving ≥2-pt (DIO-GAN NASH mouse model; [5]): 0%
NAS: mice improving, Total (≥1-pt) (DIO-GAN NASH mouse model; [5]): 31% and 31.25%
NAS: mice with no change (DIO-GAN NASH mouse model; [5]): 56.25%
NAS: mice worsening ≥1-pt (DIO-GAN NASH mouse model; [5]): 12.5%
Histological steatosis score: mice improving 1-pt (DIO-GAN NASH mouse model; [6]): 40%
Histological steatosis score: mice improving >2-pt (DIO-GAN NASH mouse model; [6]): 6.7%
Histological steatosis score: mice improving, Total (at least 1-pt) (DIO-GAN NASH mouse model; [6]): 47% and 46.7%
Histological steatosis score: mice with no change (DIO-GAN NASH mouse model; [6]): 53.33%
Liver fibrosis stage: mice improving (DIO-GAN NASH mouse model; [6]): 13.33%
Liver fibrosis stage: mice with no change (DIO-GAN NASH mouse model; [6]): 60%
Liver fibrosis stage: mice worsening (DIO-GAN NASH mouse model; [6]): 26.7%
Lobular inflammation: mice improving (DIO-GAN NASH mouse model; [6]): 6.7%
Lobular inflammation: mice with no change (DIO-GAN NASH mouse model; [6]): 73.3%
Lobular inflammation: mice worsening (DIO-GAN NASH mouse model; [6]): 20%
NAS: mice improving 1-pt (DIO-GAN NASH mouse model; [6]): 20%
NAS: mice improving ≥2-pt (DIO-GAN NASH mouse model; [6]): 7% and 6.7%
NAS: mice improving, Total (≥1-pt) (DIO-GAN NASH mouse model; [6]): 27% and 26.7%
NAS: mice with no change (DIO-GAN NASH mouse model; [6]): 73.33%
NAS: mice worsening ≥1-pt (DIO-GAN NASH mouse model; [6]): 0%
number of DEGs vs DIO-GAN vehicle control (DIO-GAN NASH mouse model; liver RNAseq, Compound 2-low (0.3 mg/kg)): 987

Cn1cc(C(=O)O)c2ccc(N3CCC(OCc4c(-c5c(Cl)cccc5Cl)noc4C4CC4)CC3)cc21 [Compound 3]
Gal-3 expression in the liver (IHC) relative to DIO-GAN vehicle control (DIO-GAN NASH mouse model; 12 wk PO QD): reduces expression of Galectin-3; also recorded: lower levels of Gal-3 expression
body weight during the study (DIO-GAN NASH mouse model; 12 wk PO QD): reduced body weight; also recorded: decreased body weight
hepatomegaly (liver weight) (DIO-GAN NASH mouse model; 12 wk PO QD): significantly reduced hepatomegaly
spleen weight (DIO-GAN NASH mouse model; 12 wk PO QD): without changes in spleen weight
total cholesterol (plasma) (DIO-GAN NASH mouse model; 12 wk PO QD): significantly reduced total cholesterol
Histological steatosis score: mice improving 1-pt (DIO-GAN NASH mouse model; [2]): 81.25%
Histological steatosis score: mice improving >2-pt (DIO-GAN NASH mouse model; [2]): 0%
Histological steatosis score: mice with no change (DIO-GAN NASH mouse model; [2]): 18.75%
Liver fibrosis stage: mice improving (DIO-GAN NASH mouse model; [2]): 6.25%
Liver fibrosis stage: mice with no change (DIO-GAN NASH mouse model; [2]): 56.25%
Liver fibrosis stage: mice worsening (DIO-GAN NASH mouse model; [2]): 37.5%
Lobular inflammation: mice improving (DIO-GAN NASH mouse model; [2]): 0%
Lobular inflammation: mice with no change (DIO-GAN NASH mouse model; [2]): 68.75%
Lobular inflammation: mice worsening (DIO-GAN NASH mouse model; [2]): 31.25%
plasma triglycerides (DIO-GAN NASH mouse model; [2]): significantly reduced plasma triglycerides
Histological steatosis score: mice improving, Total (at least 1-pt) (DIO-GAN NASH mouse model; 12 wk PO QD, Compound 3 10 mg/kg, 10 mg/kg): 81% and 81.25%
body weight at the end of study vs DIO-GAN vehicle control (DIO-GAN NASH mouse model; 12 wk PO QD, Compound 3 10 mg/kg, Combo = + Compound 2 0.3/2/10 mg/kg): significantly lower
α-SMA (IHC), marker of hepatic stellate cell activation (DIO-GAN NASH mouse model; 12 wk PO QD): Numeric reductions
NAS: mice improving ≥2-pt (DIO-GAN NASH mouse model; [7]): 0%
NAS: mice improving, Total (≥1-pt) (DIO-GAN NASH mouse model; [7]): 56%
fat tissue mass (EchoMRI) (DIO-GAN NASH mouse model; Week 11): significantly reduced fat tissue mass; also recorded: reduced levels of fat tissue
Scd1 expression (DIO-GAN NASH mouse model; liver RNAseq): reduced
expression of Col1a1, Acta2, Lgals3, CD146 relative to DIO-GAN vehicle control (DIO-GAN NASH mouse model; liver RNAseq): significantly reduced expression
